From ChEMBL document CHEMBL4414554, “Colocalization Strategy Unveils an Underside Binding Site in the Transmembrane Domain of Smoothened Receptor” (J Med Chem, 2019)
The source made the active and inactive calls. No cut-off for these calls is given here.

Tests used:
Protein smoothened [1] = target: Protein smoothened (Mus musculus, UniProt P56726); assay: (§1) Antagonist activity at SMO in mouse NIH/3T3 cells harboring Gli-responsive firefly luciferase gene assessed as inhibition of SAG-induced response preincubated for 2 hrs followed by SAG addition and measured after 24 hrs by Bright-Glo luciferase assay; format: cell-based
Sequence of Protein smoothened (Mus musculus, UniProt P56726) (P56726 whole entry): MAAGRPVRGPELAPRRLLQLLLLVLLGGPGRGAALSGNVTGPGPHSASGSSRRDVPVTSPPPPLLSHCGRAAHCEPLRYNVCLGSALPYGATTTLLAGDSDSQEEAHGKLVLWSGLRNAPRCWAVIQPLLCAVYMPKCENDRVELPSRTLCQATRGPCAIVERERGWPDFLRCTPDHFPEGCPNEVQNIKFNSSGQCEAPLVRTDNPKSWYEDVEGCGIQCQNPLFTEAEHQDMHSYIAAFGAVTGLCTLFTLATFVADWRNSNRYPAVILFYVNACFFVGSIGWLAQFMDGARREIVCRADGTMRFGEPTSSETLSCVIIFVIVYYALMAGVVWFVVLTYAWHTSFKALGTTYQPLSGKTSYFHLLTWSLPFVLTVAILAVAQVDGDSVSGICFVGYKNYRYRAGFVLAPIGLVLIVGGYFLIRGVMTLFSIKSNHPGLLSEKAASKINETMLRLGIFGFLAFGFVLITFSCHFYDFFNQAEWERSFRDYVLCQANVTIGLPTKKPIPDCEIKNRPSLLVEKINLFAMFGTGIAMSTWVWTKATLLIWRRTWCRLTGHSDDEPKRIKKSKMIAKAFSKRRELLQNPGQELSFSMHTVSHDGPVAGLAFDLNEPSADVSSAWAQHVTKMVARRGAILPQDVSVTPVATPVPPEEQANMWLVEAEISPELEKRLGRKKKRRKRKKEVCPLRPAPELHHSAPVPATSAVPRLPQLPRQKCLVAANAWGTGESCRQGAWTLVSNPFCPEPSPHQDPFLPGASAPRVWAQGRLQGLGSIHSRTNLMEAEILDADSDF

Protein smoothened [2] = target: T1, Protein smoothened (Homo sapiens, UniProt Q99835); assay: Displacement of BODIPY-LY from SMO (unknown origin) expressed in HEK293F cells measured after 15 mins by flow cytometric analysis; format: cell-based
T1 sequence (Q99835 whole entry): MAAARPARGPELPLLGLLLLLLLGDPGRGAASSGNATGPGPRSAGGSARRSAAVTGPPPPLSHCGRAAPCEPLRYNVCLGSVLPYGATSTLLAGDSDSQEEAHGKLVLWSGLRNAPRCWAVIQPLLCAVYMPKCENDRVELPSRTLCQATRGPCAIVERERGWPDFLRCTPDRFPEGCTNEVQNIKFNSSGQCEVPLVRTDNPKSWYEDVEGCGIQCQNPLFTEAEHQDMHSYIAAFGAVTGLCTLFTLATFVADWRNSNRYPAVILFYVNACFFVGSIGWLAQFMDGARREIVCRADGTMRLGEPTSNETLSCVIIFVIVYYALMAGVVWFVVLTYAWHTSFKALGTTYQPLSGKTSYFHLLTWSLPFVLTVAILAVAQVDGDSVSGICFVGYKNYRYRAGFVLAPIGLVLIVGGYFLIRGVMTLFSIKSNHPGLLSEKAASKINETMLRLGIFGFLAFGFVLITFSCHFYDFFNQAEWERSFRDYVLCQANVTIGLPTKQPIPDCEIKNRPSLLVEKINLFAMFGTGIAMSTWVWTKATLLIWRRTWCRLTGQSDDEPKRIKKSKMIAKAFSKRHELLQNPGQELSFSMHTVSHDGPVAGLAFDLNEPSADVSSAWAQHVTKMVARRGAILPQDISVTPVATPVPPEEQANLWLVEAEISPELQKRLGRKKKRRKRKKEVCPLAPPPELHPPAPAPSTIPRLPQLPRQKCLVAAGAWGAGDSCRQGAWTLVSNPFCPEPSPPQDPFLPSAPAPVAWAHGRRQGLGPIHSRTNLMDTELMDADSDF

Protein smoothened [3] = target: T1, Protein smoothened; assay: Binding affinity to recombinant SMO Glu135 residue (unknown origin) at 20 uM preincubated for 3 hrs followed by UV irradiation for 15 mins by MS/MS analysis
Protein smoothened [4] = target: T1, Protein smoothened; assay: Binding affinity to recombinant SMO Lys510 residue (unknown origin) at 20 uM preincubated for 3 hrs followed by UV irradiation for 15 mins by MS/MS analysis
Protein smoothened [5] = target: T1, Protein smoothened; assay: Binding affinity to recombinant SMO Lys186 residue (unknown origin) at 20 uM preincubated for 3 hrs followed by UV irradiation for 15 mins by MS/MS analysis
Protein smoothened [6] = target: T1, Protein smoothened; assay: Binding affinity to recombinant SMO Glu518 residue (unknown origin) assessed as modification of NRPSLLVEK (511 to 519 residue) at 20 uM preincubated for 3 hrs followed by UV irradiation for 15 mins by MS/MS analysis
Protein smoothened [7] = target: T1, Protein smoothened; assay: Binding affinity to recombinant SMO Leu498 residue (unknown origin) at 20 uM preincubated for 3 hrs followed by UV irradiation for 15 mins by MS/MS analysis
Protein smoothened [8] = target: T1, Protein smoothened; assay: Binding affinity to recombinant SMO Ala345 residue (unknown origin) at 20 uM preincubated for 3 hrs followed by UV irradiation for 15 mins by MS/MS analysis
Protein smoothened [9] = target: T1, Protein smoothened; assay: Binding affinity to recombinant SMO Thr349 residue (unknown origin) at 20 uM preincubated for 3 hrs followed by UV irradiation for 15 mins by MS/MS analysis
Protein smoothened [10] = target: T1, Protein smoothened; assay: Binding affinity to recombinant SMO Gly527 residue (unknown origin) assessed as modification of INLFAMFGTGIAMSTWVWTKATLLIWRR peptide at 20 uM preincubated for 3 hrs followed by UV irradiation for 15 mins by MS/MS analysis
Protein smoothened [11] = target: T1, Protein smoothened; assay: Binding affinity to recombinant SMO Gly529 residue (unknown origin) assessed as modification of INLFAMFGTGIAMSTWVWTKATLLIWRR peptide at 20 uM preincubated for 3 hrs followed by UV irradiation for 15 mins by MS/MS analysis
Protein smoothened [12] = target: T1, Protein smoothened; assay: Binding affinity to recombinant SMO His103 residue (unknown origin) at 20 uM preincubated for 3 hrs followed by UV irradiation for 15 mins by MS/MS analysis
Protein smoothened [13] = target: T1, Protein smoothened; assay: Binding affinity to recombinant SMO Thr528 residue (unknown origin) assessed as modification of INLFAMFGTGIAMSTWVWTKATLLIWRR peptide at 20 uM preincubated for 3 hrs followed by UV irradiation for 15 mins by MS/MS analysis
Protein smoothened [14] = target: T1, Protein smoothened; assay: Binding affinity to recombinant SMO Glu158 residue (unknown origin) at 20 uM preincubated for 3 hrs followed by UV irradiation for 15 mins by MS/MS analysis
[15] = target: Protein smoothened (Mus musculus) (UniProt P56726); assay: as §1; format: cell-based
Sequence of Protein smoothened (Mus musculus) (P56726 whole entry): as the sequence (P56726 whole entry) above

Protein smoothened [16] = target: T1, Protein smoothened; assay: Binding affinity to recombinant human SMO at 0.1 to 20 uM preincubated for 1 hr followed by 365 nm UV irradiation for 20 mins and subsequent addition of TAMRA-N3 measured after 1 hr by fluorescence-based SDS-PAGE analysis

SMILES | IC50 (Protein smoothened [1]) [nM] | Ki (Protein smoothened [2]) [nM] | other results
C[C@H]1C(=O)N(c2ccc(Cl)cc2)C(=O)N1c1ccccc1 | 547 | – | –
C[C@H]1C(=O)N(c2ccc(Cl)cc2)C(=O)N1Cc1c(F)c(F)c(F)c(F)c1F | 7380 | – | –
C[C@H]1C(=O)N(c2ccc(Cl)cc2)C(=S)N1Cc1ccccc1 | 3790 | – | –
FC(F)(F)Oc1ccc(-c2ccnc(Nc3ccc4[nH]ncc4c3)n2)cc1 | – | 30 | –
C[C@H]1C(=O)N(Cc2ccc(Cl)cc2)C(=O)N1Cc1ccccc1 | 8100 | – | –
C[C@H]1CN(c2ccc(Cl)cc2)C(=O)N1Cc1ccccc1 | 4550 | – | –
C[C@H]1C(=O)N(c2c(F)c(F)c(F)c(F)c2F)C(=O)N1Cc1ccccc1 | 1530 | – | –
C[C@H]1C(=O)N(c2ccc(Cl)cc2)C(=O)N1Cc1ccc(C2(C(F)(F)F)N=N2)cc1 | – | – | inhibition (Protein smoothened [2]): inactive; Activity [15]: inactive
C[C@H]1C(=O)N(C2CCCCC2)C(=O)N1Cc1ccccc1 | 8010 | – | –

The next lines start with results.

IC50 (Protein smoothened [1]) [nM] | Ki (Protein smoothened [2]) [nM] | SMILES | other results
383 | – | C[C@H]1C(=O)N(c2ccc(Cl)cc2)C(=O)N1CC1CCCCC1 | –
92 | – | C[C@H]1C(=O)N(c2ccc(Cl)cc2)C(=O)N1CCc1ccccc1 | –
58 | 55 | C[C@H]1C(=O)N(c2ccc(N=[N+]=[N-])cc2)C(=O)N1Cc1ccccc1 | Activity (Protein smoothened [3]): Active; Activity (Protein smoothened [4]): Active; Activity (Protein smoothened [5]): Active; Activity (Protein smoothened [6]): Active; Activity (Protein smoothened [7]): Active
59 | 33 | C[C@H]1C(=O)N(c2ccc(Cl)cc2)C(=O)N1Cc1ccccc1 | –
3 | 45 | C[C@H]1C(=O)N(c2ccc(Cl)cc2)C(=O)N1Cc1ccc(N=[N+]=[N-])cc1 | Activity (Protein smoothened [8]): Active; Activity (Protein smoothened [9]): Active; Activity (Protein smoothened [10]): Active; Activity (Protein smoothened [11]): Active; Activity (Protein smoothened [12]): Active; Activity (Protein smoothened [13]): Active; Activity (Protein smoothened [14]): Active
31 | 28 | C#CCOc1ccc(N2C(=O)[C@H](C)N(Cc3ccc(N=[N+]=[N-])cc3)C2=O)cc1 | Activity (Protein smoothened [16]): Active
